Measurements reported in paper PMC11742793 (BMC Chemistry, 2025).

Molecular target: P. falciparum lactate dehydrogenase (PfLDH) (Plasmodium falciparum, UniProt Q76NM3)
Assay: microscale thermophoresis
Type: binding

Sequence of P. falciparum lactate dehydrogenase (PfLDH) (Q76NM3 1-316): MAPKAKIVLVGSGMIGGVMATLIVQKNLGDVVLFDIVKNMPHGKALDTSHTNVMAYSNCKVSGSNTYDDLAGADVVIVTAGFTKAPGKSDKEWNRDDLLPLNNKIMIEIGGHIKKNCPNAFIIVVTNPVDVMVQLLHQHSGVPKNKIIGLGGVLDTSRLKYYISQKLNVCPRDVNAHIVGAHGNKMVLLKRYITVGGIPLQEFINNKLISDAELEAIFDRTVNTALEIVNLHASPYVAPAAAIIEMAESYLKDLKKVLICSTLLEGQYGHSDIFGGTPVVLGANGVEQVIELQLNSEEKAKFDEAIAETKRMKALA

C=C(C)[C@@H]1CC[C@]2(C(=O)O)CC[C@]3(C)[C@H](CC[C@@H]4[C@@]5(C)CC[C@H](O)C(C)(C)[C@@H]5CC[C@]43C)[C@@H]12 [BA, betulinic acid]
Kd: 104 nM
